Where two headings read alike, the source gives them in different places.
Legend:
[1] = Stability in methanolic solution; type: physicochemical; conditions: stock 1 mg/mL in methanol
Sprague-Dawley rats [2] = assay: Infarct volume after permanent (6 h) middle cerebral artery occlusion; type: in vivo, rat; conditions: 0.1 or 1.0 mg/kg iv 30 min prior to 6 h permanent occlusion (no reperfusion)
Source text: The detailed methodology for permanent middle cerebral artery occlusion (MCAO) and transient (I/R) occlusion of the middle cerebral artery has been published previously.^46 Briefly, animals were placed in a David Kopf stereotaxic frame (Tujunga, Calif.), and the right middle cerebral artery (MCA) approached through a rostral-caudal incision of the skin and frontalis muscle at the approximate level of bregma. Blood flow through the MCA was impeded by the placement of surgical suture behind the MCA at three designated positions along the exposed vessel. […] The concentration of 0.1 mg/kg represents the optimal dose of the compound of Formula (Ia), as determined above, and 1.0 mg/kg represents a 10-fold higher concentration of the optimal dose, as the optimal dose of 0.1 mg/kg was not effective in producing neuroprotection. […] At the end of each experiment in which infarct volume was measured, animals were transcardially perfused with PBS (0.1 M; 200 ml), the brains were removed and sliced into 1-mm coronal sections using a rat brain matrix (Harvard Apparatus, Holliston, Mass.). […] Infarct volumes were calculated with the use of scanned digital images of each brain section. The infarct area for both sides of each brain section was calculated using a computer-assisted imaging system (Scion, Frederick, Md.). […]

rat liver microsomes = assay: Metabolic stability using rat liver microsomes; type: in vitro ADME; conditions: RLM
Source text: Table 7 summarizes the experimental conditions used in the studies of the metabolic stability of the compound of Formula (Ia) using rat liver microsomes. Table 8 and FIG. 13 show the results from the studies of the metabolic stability of the compound of Formula (Ia) using rat liver microsomes. [table]

Sprague-Dawley rats [3] = assay: Blood pressure, heart rate and baroreceptor reflex sensitivity; type: in vivo, rat
Method: Sprague-Dawley rats were used to study the effects of (Ia) on reperfusion injury following stroke in a rodent model. The rats were anesthetized, and injected with (la) (0.01-0.1 mg/kg). After 30 minutes, occlusion of the middle cerebral artery (MCA) was performed.
All experiments were conducted on male Sprague-Dawley rats (total of 229 rats; 250-350 g; Charles River, Montreal, PQ, Canada). For all animals, food and tap water were available ad libitum. Rats were anesthetized with sodium thiobutabarbital (Inactin; Sigma-Aldrich; St. Louis, Mo.; 100 mg/kg ip), which provided a stable plane of anesthesia for the full duration of the experimental time period. To monitor blood pressure and heart rate, a polyethylene catheter (PE-50; Clay Adams, Parsippany, N.J.) was inserted into the right femoral artery. For intravenous administration of drugs, a second polyethylene catheter (PE-10; Clay Adams) was inserted into the right femoral vein. Arterial blood pressure was measured with a pressure transducer (Gould P23 ID, Cleveland, Ohio) connected to a Gould model 2200S polygraph. Heart rate was determined from the pulse pressure using a Gould tachograph (Biotach). […] An endotracheal tube was inserted to facilitate breathing. Body temperature was monitored and maintained at 37±1° C. using a Physitemp feedback system (Physitemp Instruments, Clifton, N.J.).
To determine the effect of the compound of Formula (Ia) (0.1 mg/kg; 1 ml/kg; n=4) or vehicle (25% EtOH; 1 ml/kg; n=4) administration on baseline blood pressure and heart rate, continuous recordings of blood pressure and heart rate were taken prior to and following drug or vehicle administration. Further recordings of the parameters were made at 15, 30, 45, 60, 90, and 120 min following drug administration, at which time the experiment was terminated.
To determine the effect of drug administration on autonomic reflex activation, the baroreceptor reflex was evoked using a bolus intravenous injection of the α-adrenergic receptor agonist, phenylephrine-hydrochloride (Sigma-Aldrich; 0.1 ml; 2.5 μg/ml iv). The ratio of the peak change in the magnitude of the reflex bradycardia to the magnitude of the phenylephrine-induced pressor response [ΔHR (heart rate)/ΔMAP (mean arterial pressure)] was used as a measure of baroreceptor reflex sensitivity (BRS). BRS was tested at 10 min and immediately prior to the compound of Formula (Ia) (0.1 mg/kg; 1 ml/kg; n=3) or vehicle (25% EtOH; 1 ml/kg; n=3) administration. BRS was then tested 15 and 30 min following drug administration (prior to MCAO), and then 5, 10, 20, and 30 min during MCAO (30 min MCAO), as well as 10, 20, 30, 60, 90, 120, 150, 210, 270, and 330 min following suture removal. The experiments were terminated after 5.5 h of reperfusion.

[4] = 0.1 mg/kg iv 30 min prior to I/R, during 30 min MCAO and 5.5 h reperfusion
[5] = 0.1 mg/kg iv, 2-h continuous recording, no stroke

COc1cc(C(C)=O)ccc1OC(=O)CCCCC1CCSS1 (centres unmarked) [compound of Formula (Ia)]
stability in methanolic solution [1]: stable
neuroprotection (infarct volume) in permanent MCAO (Sprague-Dawley rats [2]): did not produce neuroprotection
% Change with time (Un-treated plasma, 0 h): 100.00%
% Change with time (Un-treated plasma, <1 min): 0.00%
% remaining in spiked plasma sample (immediate extraction, no stabilizer): ~0%
% Change with time (plasma + Formic acid, 0 h): 100.00%
% Change with time (plasma + Formic acid, 10 min): 2.00%
% Change with time (plasma + Formic acid, <1 min): 15.00%
% Change with time (plasma + Sodium fluoride, 0 h): 100.00%
% Change with time (plasma + Sodium fluoride, <1 min): 2.00%
stability in biological matrix (rat/dog blood and plasma): unstable
time stabilized in plasma (with combination of DV and FA): up to 4 h
% Metabolism in 30 minutes (rat liver microsomes; control (without NADPH)): 0%
CLintr (mL/min/g liver) (rat liver microsomes; control (without NADPH)): >67 mL/min/g liver
% Metabolism in 30 minutes (rat liver microsomes; reaction (with NADPH)): 0%
CLintr (mL/min/g liver) (rat liver microsomes; reaction (with NADPH)): >67 mL/min/g liver
level of BRS depression during MCAO (Sprague-Dawley rats [3]; 0.1 mg/kg iv 30 min prior to I/R): did not alter the level of BRS depression
mean arterial pressure compared with pre-MCAO values (Sprague-Dawley rats [3]; [4]): no significant differences
mean heart rate compared with pre-MCAO values (Sprague-Dawley rats [3]; [4]): no significant differences
mean baroreflex sensitivity (BRS) (Sprague-Dawley rats [3]; 0.1 mg/kg iv 30 min prior to I/R, within 5 min of the beginning of MCAO, mean±SE): 0.23±0.05 bpm/mmHg
mean HR vs vehicle (Sprague-Dawley rats [3]; [5]): did not significantly alter
mean arterial blood pressure vs vehicle (Sprague-Dawley rats [3]; [5]): did not significantly alter
systemic blood pressure (Sprague-Dawley rats [3]; Example 3, 0.01-0.1 mg/kg, measured continuously over 6 hour period): no change in systemic blood pressure

Source: patent US9012492B2, “Apocynin-lipoic acid conjugates and uses thereof” (priority 2011, dated 2015)
